# In patent US9556143B2, “Metalloenzyme inhibitor compounds” (Viamet Pharmaceuticals, Inc., priority 2011, dated 2017):
# Tested on: Septoria tritici (ATCC 26517)
# Assay: Minimum Inhibitory Concentration (MIC) (Septoria tritici), CLSI-based microdilution
# Type: cell-based
# Details: Zymoseptoria tritici, ATCC26517, 168 h, MIC class; 50% reduction in growth of S. tritici; 7 days at 22 °C; read-out: Septoria Rating
# Procedure: C. Minimum Inhibitory Concentration (MIC) (Septoria tritici) Compounds of the present disclosure were assessed for their ability to inhibit the growth of a common strain of the fungal plant pathogen Septoria tritici (ATCC 26517) using a procedure based on a Clinical and Laboratory Standards Institute (CLSI) microdilution assay protocol for filamentous fungi. Stock solutions of the test compounds and standards were prepared in DMSO at 6400 μg/mL. Each stock solution was used to prepare a 2-fold dilution series ranging from 16 to 0.016 μg/mL (total of 11 compound concentrations) in RPMI-1640 (Roswell Park Memorial Institute) medium containing 3-(N-morpholino)propanesulfonic acid (MOPS) buffer and 2% DMSO. A 100 μL aliquot of the dilutions was added to columns 1 (16 μg/mL compound) through 11 (0.016 μg/mL compound) of a 96-well microtiter plate. This format was replicated in a second row of the microtiter plate. Thus, each microtiter plate could include 11 concentrations of four test or control compounds replicated twice. A 100 μL aliquot of RPMI-1640/MOPS/2% DMSO medium was added to column 12 (no compound control) of the microtiter plate. A fresh culture of S. tritici was used to prepare a solution of approximately 5×10^4 colony-forming units per milliliter (cfu/mL) in RPMI/MOPS medium without DMSO. A 100 μL aliquot of this solution was added to all 96 wells in the microtiter plate. […]
row,Structure (SMILES),MIC
1,"OC(Cn1cnnn1)(c1ccc(F)cc1F)C(F)(F)c1ccc(-c2ccc(Cl)nc2)cn1 (stereo not shown) [Compound 30, 1-(6′-Chloro-[3,3′-bipyridin]-6-yl)-2-(2,4-difluorophenyl)-1,1-difluoro-3-(1H-tetrazol-1-yl)propan-2-ol]",≤ 0.5 µg/mL

# Tested on: Puccinia recondita tritici = Puccinia triticina (PUCCRT)
# Assay: Fungicidal activity vs. wheat leaf rust
# Type: in vivo, Puccinia recondita tritici on wheat (variety Yuma)
# Details: % disease control @ 50 ppm, wheat seedlings sprayed, inoculated the following day, severity evaluated 7-9 days later, read-out: Puccinia Rating
# From the text: D. Evaluation of Fungicidal Activity Vs. Leaf Rust (Causal Agent Puccinia recondita tritici=Puccinia triticina; Bayer code PUCCRT). […] Each pot contained 3-8 seedlings. These plants were sprayed until wet with the formulated test compounds. The compounds were formulated at 50 ppm in 10 vol. % acetone plus 90 vol. % Triton X water (deionized water 99.99 wt %+0.01 wt % Triton X100), giving a “formulated test compound.” Formulated test compounds were applied to plants using a turn table sprayer fitted with two opposing air atomization nozzles which delivered approximately 1500 L/ha of spray volume. On the following day, the leaves were inoculated with an aqueous spore suspension of Puccinia recondita tritici and the plants were kept in high humidity overnight to permit spores to germinate and infect the leaf. The plants were then transferred to a greenhouse until disease developed on untreated control plants. Disease severity was evaluated 7-9 days later, depending on the speed of disease development. In each case of Table 3, the Puccinia rating scale is as follows: […]
row,Structure (SMILES),pest or weed control at 50 ppm
1,"OC(Cn1cnnn1)(c1ccc(Cl)cc1F)C(F)(F)c1ccc(CC2CC2)cn1 (stereo not shown) [Compound 60, 7-(4-Chloro-fluorophenyl)-1-(5-(cyclopropylmethyl)pyridin-2-yl)-1,1-difluoro-3-(1H-tetrazol-1-yl)propan-2-ol]",80 to 100%
2,"OC(Cn1cnnn1)(c1ccc(Cl)cc1F)C(F)(F)c1ccc(Cl)cn1 (stereo not shown) [Compound 26, 2-(4-Chloro-2-fluorophenyl)-1-(5-chloropyridin-2-yl)-1,1-difluoro-3-(1H-tetrazol-1-yl)propan-2-ol]",80 to 100%
3,"OC(Cn1cnnn1)(c1ccc(F)cc1F)C(F)(F)c1ccc(/C=C/COCC(F)(F)F)cn1 (stereo not shown) [Compound 6, (E)-2-(2,4-Difluorophenyl)-1,1-difluoro-3-(1H-tetrazol-1-yl)-1-(5-(3-(2,2,2-trifluoroethoxy)prop-1-en-1-yl)pyridin-2-yl)propan-2-ol]",< 40%
4,"N#Cc1cccc(OCc2ccc(C(F)(F)C(O)(Cn3cnnn3)c3ccc(F)cc3F)nc2)c1F (stereo not shown) [Compound 89, 3-((6-(2-(2,4-difluorophenyl)-1,1-difluoro-2-hydroxy-3-(1H-tetrazol-1-yl)propyl)pyridin-3-yl)methoxy)-2-fluorobenzonitrile]",80 to 100%
5,"N#Cc1ccc(C(F)(F)c2ccc(C(F)(F)C(O)(Cn3cnnn3)c3ccc(F)cc3F)nc2)cc1 (stereo not shown) [Compound 103, 4-((6-(2-(2,4-difluorophenyl)-1,1-difluoro-2-hydroxy-3-(1H-tetrazol-1-yl)propyl)pyridin-3-yl)difluoromethyl)benzonitrile]",80 to 100%
6,"OC(Cn1cnnn1)(c1ccc(F)cc1F)C(F)(F)c1ccc(Cc2ccccc2)cn1 (stereo not shown) [Compound 75, 1-(5-Benzylpyridin-2-yl)-2-(2,4-difluorophenyl)-1,1-difluoro-3-(1H-tetrazol-1-yl)propan-2-ol]",80 to 100%
7,"O=C(c1ccc(C(F)(F)F)cc1)c1ccc(C(F)(F)C(O)(Cn2cnnn2)c2ccc(F)cc2F)nc1 (stereo not shown) [Compound 66, (6-(2-(2,4-Difluorophenyl)-1,1-difluoro-2-hydroxy-3-(1H-tetrazol-1-yl)propyl)pyridin-3-yl)(4-(trifluoromethyl)phenyl)methanone]",80 to 100%
8,"OC(Cn1cnnn1)(c1ccc(F)cc1F)C(F)(F)c1ccc(COc2ccc(C(F)(F)F)cn2)cn1 (stereo not shown) [Compound 99, 2-(2,4-difluorophenyl)-1,1-difluoro-3-(1H-tetrazol-1-yl)-1-(5-(((5-(trifluoromethyl)pyridin-2-yl)oxy)methyl)pyridin-2-yl)propan-2-ol]",80 to 100%
9,"OC(Cn1cnnn1)(c1ccc(F)cc1F)C(F)(F)c1ccc(CC2CC2)cn1 (stereo not shown) [Compound 59, 1-(5-(Cyclopropylmethyl)pyridin-2-yl)-2-(2,4-difluorophenyl)-1,1-difluoro-3-(1H-tetrazol-1-yl)propan-2-ol]",80 to 100%
10,"OC(Cn1cncn1)(c1ccc(F)cc1F)C(F)(F)c1ccc(Cl)cn1 (stereo not shown) [Compound 29, 1-(5-Chloropyridin-2-yl)-2-(2,4-difluorophenyl)-1,1-difluoro-3-(1H-1,2,4-triazol-1-yl)propan-2-ol]",80 to 100%
11,"OC(Cn1cnnn1)(c1ccc(Cl)cc1F)C(F)(F)c1ccc(F)cn1 (stereo not shown) [Compound 27, 2-(4-Cloro-2-fluorophenyl)-1,1-difluoro-1-(5-fluoropyridin-2-yl)-3-(1H-tetrazol-1-yl)propan-2-ol]",80 to 100%
12,"OC(Cn1cnnn1)(c1ccc(Cl)cc1F)C(F)(F)c1ccc(Br)cn1 (stereo not shown) [Compound 22, 1-(5-Bromopyridin-2-yl)-2-(4-chloro-2-fluorophenyl)-1,1-difluoro-3-(1H-tetrazol-1-yl)propan-2-ol]",80 to 100%
13,"OC(Cn1cnnn1)(c1ccc(F)cc1F)C(F)(F)c1ccc(C(F)(F)c2ccc(F)cc2)cn1 (stereo not shown) [Compound 101, 1-(5-(difluoro(4-fluorophenyl)methyl)pyridin-2-yl)-2-(2,4-difluorophenyl)-1,1-difluoro-3-(1H-tetrazol-1-yl)propan-2-ol]",80 to 100%
14,"O=C(c1ccc(Cl)cc1)c1ccc(C(F)(F)C(O)(Cn2cnnn2)c2ccc(F)cc2F)nc1 (stereo not shown) [Compound 67, (4-Chlorophenyl)(6-(2-(2,4-difluorophenyl)-1,1-difluoro-2-hydroxy-3-(1H-tetrazol-1-yl)propyl)pyridin-3-yl)methanone]",80 to 100%
15,"OC(Cn1cnnn1)(c1ccc(F)cc1F)C(F)(F)c1ccc(-c2nccs2)cn1 (stereo not shown) [Compound 38, 2-(2,4-Difluorophenyl)-1,1-difluoro-3-(1H-tetrazol-1-yl)-1-(5-(thiazol-2-yl)pyridin-2-yl)propan-2-ol]",80 to 100%
16,"OC(Cn1cnnn1)(c1ccc(F)cc1F)C(F)(F)c1ccc(C2CC2)cn1 (stereo not shown) [Compound 18, 1-(5-Cyclopropylpyridin-2-yl)-2-(2,4-difluorophenyl)-1,1-difluoro-3-(1H-tetrazol-1-yl)propan-2-ol]",80 to 100%
17,"OC(Cn1cnnn1)(c1ccc(F)cc1F)C(F)(F)c1ccc(-c2ccc(Cl)nc2)cn1 (stereo not shown) [Compound 30, 1-(6′-Chloro-[3,3′-bipyridin]-6-yl)-2-(2,4-difluorophenyl)-1,1-difluoro-3-(1H-tetrazol-1-yl)propan-2-ol]",80 to 100%
18,"OC(Cn1cnnn1)(c1ccc(Cl)cc1F)C(F)(F)c1ccc(C2CC2)cn1 (stereo not shown) [Compound 40, 2-(4-Chloro-2-fluorophenyl)-1-(5-cyclopropylpyridin-2-yl)-1,1-difluoro-3-(1H-tetrazol-1-yl)propan-2-ol]",80 to 100%
19,"OC(Cn1cnnn1)(c1ccc(F)cc1F)C(F)(F)c1ccc(-c2ccc(C(F)(F)F)cn2)cn1 (stereo not shown) [Compound 94, 2-(2,4-difluorophenyl)-1,1-difluoro-3-(1H-tetrazol-1-yl)-1-(5-(trifluoromethyl)-[2,3′-bipyridin]-6′-yl)propan-2-ol]",80 to 100%
20,"CCOCCCc1ccc(C(F)(F)C(O)(Cn2cnnn2)c2ccc(F)cc2F)nc1 (stereo not shown) [Compound 53, 2-(2,4-Difluorophenyl)-1-(5-(3-ethoxypropyl)pyridin-2-yl)-1,1-difluoro-3-(1H-tetrazol-1-yl)propan-2-ol]",80 to 100%
21,"N#Cc1ccc(-c2ccc(C(F)(F)C(O)(Cn3cnnn3)c3ccc(F)cc3F)nc2)nc1 (stereo not shown) [Compound 95, 6′-(2-(2,4-difluorophenyl)-1,1-difluoro-2-hydroxy-3-(1H-tetrazol-1-yl)propyl)-[2,3′-bipyridin]-5-carbonitrile]",80 to 100%
